Measurements as given in PMC11281459 (Viruses, 2024).

Experiments:
SARS-CoV-2 [1] = assay: microbe, parasite or virus in culture; type: cell-based; details: Severe acute respiratory syndrome coronavirus 2, VeroE6/TMPRSS2, 48 h, read-out: IC50 values across different SARS-CoV-2 Omicron subvariants
SARS-CoV-2 [2] = assay: microbe, parasite or virus in culture; type: cell-based; details: Severe acute respiratory syndrome coronavirus 2, VeroE6/TMPRSS2, 72 h, read-out: EC50 across SARS-CoV-2 Omicron subvariants (CPE by CellTiter-Glo)

CNC(=O)C(=O)[C@H](CCC(C)(F)F)NC(=O)[C@@H]1[C@H]2CCC[C@H]2CN1C(=O)[C@@H](NC(=O)OC)C(C)(C)C [MK-7845]
IC50 (SARS-CoV-2 [1]): 80 to 300 nM | EC50 (SARS-CoV-2 [2]): 90 to 330 nM
